From patent US8158792B2, “Spiropiperidines for use as tryptase inhibitors” (Janssen Pharmaceutica N.V., priority 2007, dated 2012)

Target: human lung tryptase
Test: β-Tryptase In-Vitro Enzyme Assay
Format: biochemical
Conditions: human lung tryptase 1 nM, substrate H-D-HHT-Ala-Arg-pNa 500 μM, pH 7.4, room temperature
Method: The β-tryptase assay was conducted with human lung tryptase (Cortex Biochem #CP3033) in an aqueous buffer (10 mM Tris, 10 mM Hepes, 150 mM NaCl, 0.1% PEG 8000, pH 7.4) using the chromogenic substrate H-D-HHT-Ala-Arg-pNa. […] Percent inhibition was calculated by comparing the initial reaction velocity of samples without inhibitor to those with inhibitor. The initial reaction velocities were analyzed using Microsoft Excel.

Compound	IC50 [nM]
N#C/C(=C\c1ccccc1)C(=O)N1CCC2(CC1)COc1ccc(CN)cc12 [Cpd 248, (E)-1-(1-cyano-2-phenylethenyl)carbonyl-5′-aminomethyl-spiro[piperidine-4,3′-(2H)-benzo[b]furan]]	330
Cc1cccc2c(C(=O)N3CCC4(CC3)COc3ccc(CN)cc34)c[nH]c12 [Cpd 249, 1-(7-methyl-indol-3-yl)carbonyl-5′-aminomethyl-spiro[piperidine-4,3′-(2H)-benzo[b]furan]]	830
CCn1cc(C(=O)N2CCC3(CC2)COc2ccc(CN)cc23)c2cccc(C)c21 [Cpd 250, 1-(1-ethyl-7-methyl-indol-3-yl)carbonyl-5′-aminomethyl-spiro[piperidine-4,3′-(2H)-benzo[b]furan]]	440
NCc1ccc2c(c1)C1(CCN(C(=O)/C=C/c3ccoc3)CC1)CO2 [Cpd 251, (E)-1-(furan-3-ylethenyl)carbonyl-5′-aminomethyl-spiro[piperidine-4,3′-(2H)-benzo[b]furan]]	1500
NCc1ccc2c(c1)C1(CCN(C(=O)/C=C/c3ccccn3)CC1)CO2 [Cpd 252, (E)-1-(pyridin-2-ylethenyl)carbonyl-5′-aminomethyl-spiro[piperidine-4,3′-(2H)-benzo[b]furan]]	1600
NCc1ccc2c(c1)C1(CCN(C(=O)/C=C/c3cccnc3)CC1)CO2 [Cpd 253, (E)-1-(pyridin-3-ylethenyl)carbonyl-5′-aminomethyl-spiro[piperidine-4,3′-(2H)-benzo[b]furan]]	2400
NCc1ccc2c(c1)C1(CCN(C(=O)/C=C/c3cccs3)CC1)CO2 [Cpd 254, (E)-1-(thien-2-ylethenyl)carbonyl-5′-aminomethyl-spiro[piperidine-4,3′-(2H)-benzo[b]furan]]	370
NCc1ccc2c(c1)C1(CCN(C(=O)/C=C/c3ccsc3)CC1)CO2 [Cpd 255, (E)-1-(thien-3-ylethenyl)carbonyl-5′-aminomethyl-spiro[piperidine-4,3′-(2H)-benzo[b]furan]]	580
Cc1cc(C(=O)N2CCC3(CC2)COc2ccc(CN)cc23)sc1C(O)O [Cpd 256, 1-(5-dihydroxymethyl-4-methyl-thien-2-yl)carbonyl-5′-aminomethyl-spiro[piperidine-4,3′-(2H)-benzo[b]furan]]	820
NCc1ccc2c(c1)C1(CCN(C(=O)c3cc4c(s3)CCCCC4)CC1)CO2 [Cpd 257, 1-(5,6,7,8-tetrahydro-4H-cyclohepta[b]thien-2-yl)carbonyl-5′-aminomethyl-spiro[piperidine-4,3′-(2H)-benzo[b]furan]]	440
CSc1sc(C(=O)N2CCC3(CC2)COc2ccc(CN)cc23)cc1C#N [Cpd 258, 1-(4-cyano-5-methylthio-thien-2-yl)carbonyl-5′-aminomethyl-spiro[piperidine-4,3′-(2H)-benzo[b]furan]]	28
Cc1cc(C(=O)N2CCC3(CC2)COc2ccc(CN)cc23)sc1Br [Cpd 259, 1-(4-methyl-5-bromo-thien-2-yl)carbonyl-5′-aminomethyl-spiro[piperidine-4,3′-(2H)-benzo[b]furan]]	55
CCOc1sc(C(=O)N2CCC3(CC2)COc2ccc(CN)cc23)c2c1C(=O)CCC2 [Cpd 261, 1-(3-ethoxy-4-oxo-5,6,7-trihydro-4H-benzo[c]thien-1-yl)carbonyl-5′-aminomethyl-spiro[piperidine-4,3′-(2H)-benzo[b]furan]]	73
NCc1ccc2c(c1)C1(CCN(C(=O)c3ccc(Cl)c(Cl)c3)C(=O)C1)CO2 (stereo not shown) [Cpd 262, 1-(3,4-dichlorophenyl)carbonyl-2-oxo-5′-aminomethyl-spiro[piperidine-4,3′-(2H)-benzo[b]furan]]	4500
NCc1ccc2c(c1)C1(CCN(C(=O)NCc3ccccc3)CC1)CO2 [Cpd 263, 1-benzylaminocarbonyl-5′-aminomethyl-spiro[piperidine-4,3′-(2H)-benzo[b]furan]]	5100
NCc1ccc2c(c1)C1(CCN(C(=O)C#Cc3ccc(O)cc3)CC1)CO2 [Cpd 264, 1-(4-hydroxy-phenylethynyl)carbonyl-5′-aminomethyl-spiro[piperidine-4,3′-(2H)-benzo[b]furan]]	3200
NCc1ccc2c(c1)C1(CCN(C(=O)/C=C/c3cccc(O)c3)CC1)CO2 [Cpd 265, (E)-1-(3-hydroxy-phenylethenyl)carbonyl-5′-aminomethyl-spiro[piperidine-4,3′-(2H)-benzo[b]furan]]	870
CC(C)(C)c1ccc(C(=O)N2CCC3(CC2)COc2ccc(CN)cc23)s1 [Cpd 266, 1-(5-tert-butyl-thien-2-yl)carbonyl-5′-aminomethyl-spiro[piperidine-4,3′-(2H)-benzo[b]furan]]	200
COC(=O)c1ccc(C(=O)N2CCC3(CC2)COc2ccc(CN)cc23)s1 [Cpd 267, 1-(5-methoxycarbonyl-thien-2-yl)carbonyl-5′-aminomethyl-spiro[piperidine-4,3′-(2H)-benzo[b]furan]]	340
CC(C)(C)c1ccc(/C=C/C(=O)N2CCC3(CC2)COc2ccc(CN)cc23)cc1 [Cpd 268, (E)-1-(4-tert-butyl-phenylethenyl)carbonyl-5′-aminomethyl-spiro[piperidine-4,3′-(2H)-benzo[b]furan]]	2900
NCc1ccc2c(c1)C1(CCN(C(=O)c3cccc4c3Cc3ccccc3-4)CC1)CO2 [Cpd 269, 1-fluoren-1-ylcarbonyl-5′-aminomethyl-spiro[piperidine-4,3′-(2H)-benzo[b]furan]]	1000
NCc1ccc2c(c1)C1(CCN(C(=O)c3cccc4c3C(=O)c3ccccc3-4)CC1)CO2 [Cpd 270, 1-(9-oxo-fluoren-1-yl)carbonyl-5′-aminomethyl-spiro[piperidine-4,3′-(2H)-benzo[b]furan]]	6400
CCc1ccc2c(Cl)c(C(=O)N3CCC4(CC3)COc3ccc(CN)cc34)sc2c1 [Cpd 271, 1-(3-chloro-6-ethyl-benzo[b]thien-2-yl)carbonyl-5′-aminomethyl-spiro[piperidine-4,3′-(2H)-benzo[b]furan]]	2800
NCc1ccc2c(c1)C1(CCN(C(=O)/C=C/c3ccccc3O)CC1)CO2 [Cpd 272, (E)-1-(2-hydroxy-phenylethenyl)carbonyl-5′-aminomethyl-spiro[piperidine-4,3′-(2H)-benzo[b]furan]]	190
NCc1ccc2c(c1)C1(CCN(C(=O)c3cccc(C(N)=O)c3)CC1)CO2 [Cpd 273, 1-(3-aminocarbonyl-phenyl)carbonyl-5′-aminomethyl-spiro[piperidine-4,3′-(2H)-benzo[b]furan]]	1200
CC(C)(C)c1cccc(C(=O)N2CCC3(CC2)COc2ccc(CN)cc23)c1 [Cpd 274, 1-(3-tert-butyl-phenyl)carbonyl-5′-aminomethyl-spiro[piperidine-4,3′-(2H)-benzo[b]furan]]	6400
NCc1ccc2c(c1)C1(CCN(C(=O)c3sc(Cl)c(Cl)c3Cl)CC1)CO2 [Cpd 275, 1-(3,4,5-trichloro-thien-2-yl)carbonyl-5′-aminomethyl-spiro[piperidine-4,3′-(2H)-benzo[b]furan]]	22
C[SH]1C=C(C(F)(F)F)C2=C1NN(C(=O)N1CCC3(CC1)COc1ccc(CN)cc13)C2 (stereo not shown) [Cpd 276, 1-(4-trifluoromethyl-6-methyl-1H-thieno[2,3-c]pyrazol-2-yl)carbonyl-5′-aminomethyl-spiro[piperidine-4,3′-(2H)-benzo[b]furan]]	150
